The text below walks through data of US10526336B2, “Fused heteroaryl derivatives as orexin receptor antagonists” (Merck Sharp & Dohme Corp., priority 2014, dated 2020).

For this experiment, the target named is human orexin-2 receptor (Homo sapiens (Human), UniProt O43614). The experiment in a line: FLIPR Ca2+ Flux Assay, orexin-2 receptor antagonism in CHO cells. The format is cell-based. Particulars: CHO cells expressing the human orexin-2 receptor; agonist 70 pM Ala-6,12 orexin-A; read-out: hOX2 FLIPR IC50. Here is the method: The utility of the compounds in accordance with the present invention as orexin receptor OX1R and/or OX2R antagonists may be readily determined without undue experimentation by methodology well known in the art, including the “FLIPR Ca^2+ Flux Assay” (Okumura et al., Biochem. Biophys. Res. Comm. 280:976-981, 2001). In a typical experiment the OX1 and OX2 receptor antagonistic activity of the compounds of the present invention was determined in accordance with the following experimental method. For intracellular calcium measurements, Chinese hamster ovary (CHO) cells expressing the rat orexin-1 receptor or the human orexin-2 receptor, are grown in Iscove's modified DMEM containing 2 mM L-glutamine, […], 1% hypoxanthine-thymidine supplement, 100 U/ml penicillin, 100 μg/ml streptomycin and 10% heat-inactivated fetal calf serum (FCS). The cells are seeded at 20,000 cells/well into Becton-Dickinson black 384-well clear bottom sterile plates coated with poly-D-lysine. All reagents are from GIBCO-Invitrogen Corp. The seeded plates are incubated overnight at 37° C. and 5% CO2. Ala-6,12 human orexin-A as the agonist is prepared as a 1 mM stock solution in 1% bovine serum albumin (BSA) and diluted in assay buffer (HBSS containing 20 mM HEPES, 0.1% BSA and 2.5 mM probenecid, pH7.4) for use in the assay at a final concentration of 70 pM. Test compounds are prepared as 10 mM stock solution in DMSO, then diluted in 384-well plates, first in DMSO, then assay buffer. On the day of the assay, cells are washed 3 times with 100 μl assay buffer and then incubated for 60 min (37° C., 5% CO2) in 60 μl assay buffer containing […] Fluo-4AM ester, 0.02% pluronic acid, and 1% BSA. The dye loading solution is then aspirated and cells are washed 3 times with 100 μl assay buffer. 30 μl of that same buffer is left in each well. Within the Fluorescent Imaging Plate Reader (FLIPR, Molecular Devices), test compounds are added to the plate in a volume of 25 μl, incubated for 5 min and finally 25 μl of agonist is added. Fluorescence is measured for each well at 1 second intervals for 5 minutes and the height of each fluorescence peak is compared to the height of the fluorescence peak induced by 70 pM Ala-6,12 orexin-A with buffer in place of antagonist. For each antagonist, IC50 value (the concentration of compound needed to inhibit 50% of the agonist response) is determined. Alternatively, compound potency can be assessed by a radioligand binding assay (described in Bergman et. al. Bioorg. Med. Chem. Lett. 2008, 18, 1425-1430) in which the inhibition constant (Ki) is determined in membranes prepared from CHO cells expressing either the OX1 or OX2 receptor. The intrinsic orexin receptor antagonist activity of a compound which may be used in the present invention may be determined by these assays.
human orexin-2 receptor, sequence (O43614 whole entry): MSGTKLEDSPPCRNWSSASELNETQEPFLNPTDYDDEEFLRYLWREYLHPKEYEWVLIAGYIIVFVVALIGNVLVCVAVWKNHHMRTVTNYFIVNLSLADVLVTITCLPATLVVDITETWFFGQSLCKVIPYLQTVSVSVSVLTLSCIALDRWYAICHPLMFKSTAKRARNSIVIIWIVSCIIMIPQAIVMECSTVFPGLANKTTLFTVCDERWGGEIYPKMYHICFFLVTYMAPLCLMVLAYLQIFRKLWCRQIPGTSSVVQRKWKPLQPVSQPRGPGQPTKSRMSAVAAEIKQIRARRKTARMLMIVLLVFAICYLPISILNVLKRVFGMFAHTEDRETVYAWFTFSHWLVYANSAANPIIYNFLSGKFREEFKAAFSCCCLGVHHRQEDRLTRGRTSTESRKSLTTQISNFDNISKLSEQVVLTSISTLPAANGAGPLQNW
In general terms: Calcium flux is commonly read through the fluorescence of an indicator in the cells.

What is called IC50 is the concentration that gives 50% inhibition.

As to `Cc1cn2ccnc(O[C@@H]3CC[C@@H](C)N(C(=O)c4cccnc4-c4ccccc4)C3)c2n1` [Example 17, ((2R,5R)-2-methyl-5-((2-methylimidazo [1,2-α]pyrazin-8-yl)oxy)piperidin-1-yl) (2-phenylpyridin-3-yl)methanone], the half-inhibitory concentration (IC50) was determined as 68.4 nM. In the case of `Cc1cn2ccnc(O[C@@H]3CC[C@@H](C)N(C(=O)c4cccnc4OCC(F)F)C3)c2n1` [Example 15, (2-(2,2-difluoroethoxy)pyridin-3-yl)((2R,5R)-2-methyl-5-((2-methylimidazo[1,2-a]pyrazin-8-yl)oxy)piperidin-1-yl)methanone] it was 41.7 nM; in that of `Cc1cn2ccnc(O[C@@H]3CC[C@@H](C)N(C(=O)c4ccccc4-n4ncnn4)C3)c2n1` [Example 11, (2-(2H-tetrazol-2-yl)phenyl)((2R,5R)-2-methyl-5-((2-methylimidazo[1,2-α]pyrazin-8-yl)oxy)piperidin-1-yl)methanone], 22.2 nM; in that of `Cc1ncc2c(O[C@@H]3CC[C@@H](C)N(C(=O)c4ccccc4-n4nccn4)C3)nccn12` [Example 103, (2-(2H-1,2,3-triazol-2-yl)phenyl)((2R,5R)-2-methyl-5-((3-methylimidazo[1,5-a]pyrazin-8-yl)oxy)piperidin-1-yl)methanone], 23.5 nM.

`C[C@@H]1CC[C@@H](Oc2nccn3c(C(F)(F)F)cnc23)CN1C(=O)c1ccccc1-c1ncccn1` [Example 66, ((2R,5R)-2-methyl-5-((3-(trifluoromethyl)imidazo[1,2-a]pyrazin-8-yl)oxy)piperidin-1-yl)(2-(pyrimidin-2-yl)phenyl)methanone]: the IC50 turned out to be 14.9 nM. In the case of `C[C@@H]1CC[C@@H](Oc2nccn3c(C(F)F)cnc23)CN1C(=O)c1cscc1-n1nccn1` [Example 41, (4-(2H-1,2,3-triazol-2-yl)thiophen-3-yl)((2R,5R)-5-((3-(difluoromethyl)imidazo[1,2-α]pyrazin-8-yl)oxy)-2-methylpiperidin-1-yl)methanone] it was 45.7 nM; in that of `C[C@@H]1CC[C@@H](Oc2nccc3ncn(C)c23)CN1C(=O)c1ccccc1-n1nccn1` [Example 99, (2-(2H-1,2,3-triazol-2-yl)phenyl)((2R,5R)-2-methyl-5-((3-methyl-3H-imidazo[4,5-c]pyridin-4-yl)oxy)piperidin-1-yl)methanone], 42.3 nM; in that of `C[C@@H]1CC[C@@H](Oc2nccn3c(C(F)F)cnc23)CN1C(=O)c1nccnc1-c1ccccn1` [Example 47, ((2R,5R)-5-((3-(difluoromethyl)imidazo[1,2-α]pyrazin-8-yl)oxy)-2-methylpiperidin-1-yl)(3-(pyridin-2-yl)pyrazin-2-yl)methanone], 64.9 nM. In the case of `C[C@@H]1CC[C@@H](Oc2nccn3c(C(F)(F)F)cnc23)CN1C(=O)c1ccccc1C1(C#N)CC1` [Example 59, 1-(2-((2R,5R)-2-methyl-5-((3-(trifluoromethyl)imidazo [1,2-α]pyrazin-8-yl)oxy)piperidine-1-carbonyl)phenyl) cyclopropanecarbonitrile] it was 12.8 nM. In the case of `C[C@@H]1CC[C@@H](Oc2nccn3c(C(F)F)cnc23)CN1C(=O)c1ccccc1CS(C)(=O)=O` [Example 39, ((2R,5R)-5-((3-(difluoromethyl)imidazo[1,2-a]pyrazin-8-yl)oxy)-2-methylpiperidin-1-yl)(2-((methylsulfonyl)methyl)phenyl)methanone] it was 62.6 nM; in that of `CC(C)c1cn2ccnc(O[C@@H]3CC[C@@H](C)N(C(=O)c4ccccc4-n4nccn4)C3)c2n1` [Example 20, (2-(2H-1,2,3-triazol-2-yl)phenyl)((2R,5R)-5-((2-isopropylimidazo[1,2-a]pyrazin-8-yl)oxy)-2-methylpiperidin-1-yl)methanone], 49 nM; in that of `C[C@@H]1CC[C@@H](Oc2nccn3c(Cl)cnc23)CN1C(=O)c1ccccc1-n1ncnn1` [Example 27, (2-(2H-tetrazol-2-yl)phenyl) ((2R,5R)-5-((3-chloroimidazo[1,2-α]pyrazin-8-yl)oxy)-2-methylpiperidin-1-yl)methanone], 9.1 nM.

Consider `C[C@@H]1CC[C@@H](Oc2nccn3nccc23)CN1C(=O)c1cscc1-c1ncccn1` [Example 74, ((2R,5R)-2-methyl-5-(pyrazolo[1,5-α]pyrazin-4-yloxy)piperidin-1-yl)(4-(pyrimidin-2-yl)thiophen-3-yl) methanone], for which the 50% inhibitory concentration (IC50) was 34.4 nM. In the case of `C[C@@H]1CC[C@@H](Oc2nccn3nccc23)CN1C(=O)c1ccccc1C1(C#N)CC1` [Example 72, 1-(2-((2R,5R)-2-methyl-5-(pyrazolo[1,5-α]pyrazin-4-yloxy)piperidine-1-carbonyl)phenyl) cyclopropanecarbonitrile] it was 14.3 nM; in that of `C[C@@H]1CC[C@@H](Oc2nccn3cc(C(F)(F)F)nc23)CN1C(=O)c1ccccc1-n1nccn1` [Example 21, (2-(2H-1,2,3-triazol-2-yl)phenyl)((2R,5R)-2-methyl-5-((2-(trifluoromethyl)imidazo[1,2-a]pyrazin-8-yl)oxy)piperidin-1-yl)methanone], 63.7 nM; in that of `C[C@@H]1CC[C@@H](Oc2nccn3c(C(F)F)cnc23)CN1C(=O)c1cccnc1-n1cccn1` [Example 52, (2-(1H-pyrazol-1-yl)pyridin-3-yl)((2R,5R)-5-((3-(difluoromethyl)imidazo[1,2-α]pyrazin-8-yl)oxy)-2-methylpiperidin-1-yl)methanone], 15.8 nM. As for `Cc1cn2ccnc(N[C@@H]3CC[C@@H](C)N(C(=O)c4ccccc4-n4nccn4)C3)c2n1` [Example 19, (2-(2H-1,2,3-triazol-2-yl)phenyl)((2R,5R)-2-methyl-5-((2-methylimidazo[1,2-a]pyrazin-8-yl)amino)piperidin-1-yl)methanone], the figure is 50.9 nM. In the case of `Cc1cn2ccnc(O[C@@H]3CC[C@@H](C)N(C(=O)c4cccnc4OCC(F)(F)F)C3)c2n1` [Example 16, ((2R,5R)-2-methyl-5-((2-methylimidazo [1,2-α]pyrazin-8-yl)oxy)piperidin-1-yl) (2-(2,2,2-trifluoroethoxy)pyridin-3-yl)methanone] it was 33.5 nM. In the case of `C[C@@H]1CC[C@@H](Oc2cccn3nccc23)CN1C(=O)c1ccccc1-n1nccn1` [Example 90, (2-(2H-1,2,3-triazol-2-yl)phenyl)((2R,5R)-2-methyl-5-(pyrazolo[1,5-a]pyridin-4-yloxy)piperidin-1-yl)methanone], the IC50 stood at 125 nM. As for `C[C@@H]1CC[C@@H](Oc2nccn3cncc23)CN1C(=O)c1ccccc1-n1nccn1` [Example 102, (2-(2H-1,2,3-triazol-2-yl)phenyl)((2R,5R)-5-(imidazo[1,5-a]pyrazin-8-yloxy)-2-methylpiperidin-1-yl)methanone], the figure is 14 nM. For `C[C@@H]1CC[C@@H](Oc2nccn3c(Cl)cnc23)CN1C(=O)c1ccsc1-n1nccn1` [Example 29, (2-(2H-1,2,3-triazol-2-yl)thiophen-3-yl)((2R,5R)-5-((3-chloroimidazo[1,2-α]pyrazin-8-yl)oxy)-2-methylpiperidin-1-yl)methanone], the IC50 amounted to 14.3 nM.

Turning to `C=Cc1cnc2c(O[C@@H]3CC[C@@H](C)N(C(=O)c4ccccc4-n4nccn4)C3)nccn12` [Example 36, (2-(2H-1,2,3-triazol-2-yl)phenyl)((2R,5R)-2-methyl-5-((3-vinylimidazo[1,2-a]pyrazin-8-yl)oxy)piperidin-1-yl)methanone], the IC50 was determined as 21 nM. With `CCOc1ccccc1C(=O)N1C[C@H](Oc2nccn3nccc23)CC[C@H]1C` [Example 81, (2-ethoxyphenyl)((2R,5R)-2-methyl-5-(pyrazolo[1,5-α]pyrazin-4-yloxy)piperidin-1-yl)methanone], the IC50 is 51.9 nM.

In the case of `C[C@@H]1CC[C@@H](Oc2nccn3cc(CO)nc23)CN1C(=O)c1ccccc1-n1nccn1` [Example 25, (2-(2H-1,2,3-triazol-2-yl)phenyl)((2R,5R)-5-((2-(hydroxymethyl)imidazo[1,2-a]pyrazin-8-yl)oxy)-2-methylpiperidin-1-yl)methanone], the IC50 amounted to 49.3 nM.
